Results published in publication PMC9951879, “Synthesis of New Shogaol Analogues as NRF2 Activators and Evaluation of Their Anti-Inflammatory Activity, Modes of Action and Metabolic Stability” (Antioxidants, 2023).

System: not listed separately
Test: Liver microsomal stability, human
Format: in vitro ADME
Settings: human liver microsomes, 1 μM (verapamil 0.5 μM)
Method: (§1) The liver microsomes of humans, rats, and mice were purchased from Merck (human, #M0567; rat, #M9066; mouse, #M9441). The metabolic stability of 6-shogaol and STCs (1 μM effective concentration; 5 μL) was mixed with liver microsomes (0.5 mg mL^−1; 445 μL) in a microcentrifuge tube. Verapamil (0.5 μM) was used as the positive control. The microsome and compound mixture were shaken on a plate shaker for 5 min to ensure homogeneity. NADPH (1 mM; 50 μL) was added to the mixture to start the metabolic reaction. The reaction mixture was incubated at 37 °C for 0, 3, 6, 15, 30, 45, and 60 min. The mixture (20 μL) was sampled and quenched with 180 μL of acetonitrile with internal standard (Donepezil 50 ng/mL) to terminate the metabolic reaction at each time point. Ultrapure water (80 μL) was added, and contents in the microcentrifuge tubes were centrifuged at 3800 rpm at 4 °C for 10 min. […] Each set of experiments was repeated three times in human, rat, and mouse liver microsomes. The concentration of the compounds versus time was plotted to determine the elimination rate constant (Kel). The intrinsic clearance (Clint) and half-life (t1/2) were calculated using the following equations.

Row | Structure (SMILES) | Clint | half-life at 1 μM
1 | COc1cc(CCC(=O)/C=C/c2cc(Br)cs2)ccc1O [STC4, (E)-5-(4-Hydroxy-3-methoxyphenyl)-1-(4-bromothiophen-2-yl)pent-1-en-3-one] | 6.35 ± 1.79 mL/min/g liver | 11.5 min
2 | COc1cc(CCC(=O)/C=C/c2ccc(Br)s2)ccc1O [STC6, (E)-5-(4-Hydroxy-3-methoxyphenyl)-1-(5-bromothiophen-2-yl)pent-1-en-3-one] | 5.32 ±1.08 mL/min/g liver | 13.7 min
3 | COc1cc(CCC(=O)/C=C/c2sccc2C)ccc1O [STC3, (E)-5-(4-Hydroxy-3-methoxyphenyl)-1-(3-methylthiophen-2-yl)pent-1-en-3-one] | 6.18 ± 1.34 mL/min/g liver | 11.8 min
4 | CCc1ccc(/C=C/C(=O)CCc2ccc(O)c(OC)c2)s1 [STC7, (E)-5-(4-Hydroxy-3-methoxyphenyl)-1-(5-ethylthiophen-2-yl)pent-1-en-3-one] | 6.27 ± 1.44 mL/min/g liver | 11.6 min

More lines, now with the values ahead:

Row | Clint | half-life at 1 μM | Structure (SMILES)
5 | 6.85 ± 1.62 mL/min/g liver | 10.6 min | COc1cc(CCC(=O)/C=C/c2cccs2)ccc1O [STC2, (E)-5-(4-Hydroxy-3-methoxyphenyl)-1-(thiophen-2-yl)pent-1-en-3-one]
6 | 7.15 ± 1.24 mL/min/g liver | 10.2 min | COc1cc(CCC(=O)/C=C/c2ccsc2)ccc1O [STC1, (E)-5-(4-Hydroxy-3-methoxyphenyl)-1(thiophen-3-yl)pent-1-en-3-one]

System: not listed separately
Test: Liver microsomal stability, rat
Format: in vitro ADME
Settings: rat liver microsomes, 1 μM (verapamil 0.5 μM)
Method: as §1

Row | Structure (SMILES) | Clint | half-life at 1 μM
7 | COc1cc(CCC(=O)/C=C/c2cc(Br)cs2)ccc1O [STC4, (E)-5-(4-Hydroxy-3-methoxyphenyl)-1-(4-bromothiophen-2-yl)pent-1-en-3-one] | 8.79 ± 1.94 mL/min/g liver | 8.28 min
8 | COc1cc(CCC(=O)/C=C/c2ccc(Br)s2)ccc1O [STC6, (E)-5-(4-Hydroxy-3-methoxyphenyl)-1-(5-bromothiophen-2-yl)pent-1-en-3-one] | 8.17 ± 1.74 mL/min/g liver | 8.91 min
9 | COc1cc(CCC(=O)/C=C/c2sccc2C)ccc1O [STC3, (E)-5-(4-Hydroxy-3-methoxyphenyl)-1-(3-methylthiophen-2-yl)pent-1-en-3-one] | 9.65 ± 1.54 mL/min/g liver | 7.54 min
10 | CCc1ccc(/C=C/C(=O)CCc2ccc(O)c(OC)c2)s1 [STC7, (E)-5-(4-Hydroxy-3-methoxyphenyl)-1-(5-ethylthiophen-2-yl)pent-1-en-3-one] | 8.52 ± 1.16 mL/min/g liver | 8.54 min

Further lines, results first:

Row | Clint | half-life at 1 μM | Structure (SMILES)
11 | 9.46 ± 1.85 mL/min/g liver | 7.69 min | COc1cc(CCC(=O)/C=C/c2cccs2)ccc1O [STC2, (E)-5-(4-Hydroxy-3-methoxyphenyl)-1-(thiophen-2-yl)pent-1-en-3-one]
12 | 10.63 ± 1.25 mL/min/g liver | 6.85 min | COc1cc(CCC(=O)/C=C/c2ccsc2)ccc1O [STC1, (E)-5-(4-Hydroxy-3-methoxyphenyl)-1(thiophen-3-yl)pent-1-en-3-one]

Target: T1, GSK-3β (Homo sapiens, UniProt P49841)
T1 construct: purchased Promega
Test: GSK-3β kinase ADP-Glo assay
Format: biochemical
Settings: ATP 25 μM, read-out: IC50, GSK-3β enzyme activity
Method: The effect of STCs on GSK-3β activity was determined using GSK-3β kinase enzyme (Promega, WI, USA) and ADP-Glo^TM kinase assay (Promega, USA) following the manufacturer’s protocol and reported method. The STCs were dissolved in the kinase buffer to prepare different concentrations (10, 1, 0.1, 0.01, and 0.001 μM). One microliter of the test compounds was added to each well (384 well plate), followed by the addition of 2 μL of GSK-3β kinase (1 ng), 2 μL of the GSK-3β substrate (0.4 μg), and 2 μL of the ATP (25 μM), and incubated for 60 min. Then, 5 μL of ADP-Glo^TM reagent was added and incubated further for 40 min. Then 10 μL of kinase detection reagent was added and incubated for 30 min. The luminescence was recorded using a SpectraMax®L microplate reader (Molecular Devices, San Jose, CA, USA). The IC50 (concentration of the test compound required to produce half-maximal […]) from dose-response curves using non-linear regression analysis using GraphPad Prism (9.5.0; San Diego, CA, USA) software.

T1 sequence (P49841 whole entry): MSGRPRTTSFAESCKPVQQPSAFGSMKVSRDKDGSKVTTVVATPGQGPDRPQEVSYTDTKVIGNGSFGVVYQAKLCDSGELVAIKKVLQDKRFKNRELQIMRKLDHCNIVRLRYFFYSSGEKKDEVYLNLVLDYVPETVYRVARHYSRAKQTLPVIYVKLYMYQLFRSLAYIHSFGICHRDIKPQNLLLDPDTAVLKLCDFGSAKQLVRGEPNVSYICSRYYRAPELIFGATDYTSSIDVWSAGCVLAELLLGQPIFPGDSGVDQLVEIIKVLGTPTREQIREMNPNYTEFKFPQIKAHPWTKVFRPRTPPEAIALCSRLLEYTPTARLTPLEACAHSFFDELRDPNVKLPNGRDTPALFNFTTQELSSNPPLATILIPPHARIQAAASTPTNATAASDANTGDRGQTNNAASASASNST

Row | Structure (SMILES) | IC50
13 | COc1cc(CCC(=O)/C=C/c2cc(Br)cs2)ccc1O [STC4, (E)-5-(4-Hydroxy-3-methoxyphenyl)-1-(4-bromothiophen-2-yl)pent-1-en-3-one] | 130 nM
14 | COc1cc(CCC(=O)/C=C/c2ccc(Br)s2)ccc1O [STC6, (E)-5-(4-Hydroxy-3-methoxyphenyl)-1-(5-bromothiophen-2-yl)pent-1-en-3-one] | 140 nM
15 | COc1cc(CCC(=O)/C=C/c2sccc2C)ccc1O [STC3, (E)-5-(4-Hydroxy-3-methoxyphenyl)-1-(3-methylthiophen-2-yl)pent-1-en-3-one] | 240 nM
16 | CCc1ccc(/C=C/C(=O)CCc2ccc(O)c(OC)c2)s1 [STC7, (E)-5-(4-Hydroxy-3-methoxyphenyl)-1-(5-ethylthiophen-2-yl)pent-1-en-3-one] | 190 nM

Second part, the compound after the results:

Row | IC50 | Structure (SMILES)
17 | 320 nM | COc1cc(CCC(=O)/C=C/c2cccs2)ccc1O [STC2, (E)-5-(4-Hydroxy-3-methoxyphenyl)-1-(thiophen-2-yl)pent-1-en-3-one]
18 | 420 ± 80 nM | COc1cc(CCC(=O)/C=C/c2ccsc2)ccc1O [STC1, (E)-5-(4-Hydroxy-3-methoxyphenyl)-1(thiophen-3-yl)pent-1-en-3-one]

System: NAD(P)H quinone oxidoreductase 1 (NQO1)
Test: Prochaska microtiter plate bioassay, NQO1 induction in Hepa-1c1c7 cells
Format: cell-based, mouse
Settings: Mus musculus, Hepa-1c1c7, 48 h, Hepa-1c1c7 cells, 48 h; read-out: CD (concentration required to double the NQO1 level)
Method: The effect of shogaol thiophene compounds (STCs) on NRF2 activation is determined by measuring the NAD(P)H quinone oxidoreductase 1 (NQO1) inducer activity, as reported in our previous studies. The mouse hepatoma cells (Hepa-1c1c7, 1 × 10^4 per well) were incubated with STCs (10, 1, 0.1, 0.01, and 0.001 µM) for 48 h. The cells were lysed using digitonin (0.8 mg/mL and 2 mM EDTA; Acros, UK), and the protein concentration was determined using Bradford’s assay kit (Thermo Fisher Scientific, USA). The cell lysate was incubated with a reaction mixture of 0.5 M Tris-Cl buffer (Calbiochem, USA), 7.5 mM FAD (Acros, UK), 150 mM glucose-6-phosphate (Calbiochem, San Diego, CA, USA), 2 U/mL glucose-6-phosphate dehydrogenase (Calbiochem, USA), 50 mM NADP+ (Sigma Aldrich, USA), 25 mM menadione (Sigma Aldrich, USA), and 0.7 mM MTT (Sigma Aldrich, USA) at 37 °C for 5 min. The absorbance was recorded at 610 nm using a microplate reader (Spectramax M3, Molecular Devices, San Jose, CA, USA), and the values were normalised to the total protein content.

Row | Structure (SMILES) | EC (2-fold NQO1 induction)
19 | COc1cc(CCC(=O)/C=C/c2cc(Br)cs2)ccc1O [STC4, (E)-5-(4-Hydroxy-3-methoxyphenyl)-1-(4-bromothiophen-2-yl)pent-1-en-3-one] | 0.43 ± 0.09 µM
20 | COc1cc(CCC(=O)/C=C/c2ccc(Br)s2)ccc1O [STC6, (E)-5-(4-Hydroxy-3-methoxyphenyl)-1-(5-bromothiophen-2-yl)pent-1-en-3-one] | 0.42 ± 0.11 µM
21 | COc1cc(CCC(=O)/C=C/c2cccs2)ccc1O [STC2, (E)-5-(4-Hydroxy-3-methoxyphenyl)-1-(thiophen-2-yl)pent-1-en-3-one] | 2.65 ± 0.27 µM
22 | COc1cc(CCC(=O)/C=C/c2sccc2C)ccc1O [STC3, (E)-5-(4-Hydroxy-3-methoxyphenyl)-1-(3-methylthiophen-2-yl)pent-1-en-3-one] | 1.84 ± 0.15 µM
23 | CCc1ccc(/C=C/C(=O)CCc2ccc(O)c(OC)c2)s1 [STC7, (E)-5-(4-Hydroxy-3-methoxyphenyl)-1-(5-ethylthiophen-2-yl)pent-1-en-3-one] | 1.48 ± 0.34 µM
24 | COc1cc(CCC(=O)/C=C/c2ccsc2)ccc1O [STC1, (E)-5-(4-Hydroxy-3-methoxyphenyl)-1(thiophen-3-yl)pent-1-en-3-one] | 4.19 ± 0.44 µM

System: not listed separately
Test: Liver microsomal stability, mouse
Format: in vitro ADME
Settings: mouse liver microsomes, 1 μM (verapamil 0.5 μM)
Method: as §1

Row | Structure (SMILES) | Clint | half-life at 1 μM
25 | COc1cc(CCC(=O)/C=C/c2cc(Br)cs2)ccc1O [STC4, (E)-5-(4-Hydroxy-3-methoxyphenyl)-1-(4-bromothiophen-2-yl)pent-1-en-3-one] | 9.67 ± 1.23 mL/min/g liver | 7.52 min
26 | COc1cc(CCC(=O)/C=C/c2ccc(Br)s2)ccc1O [STC6, (E)-5-(4-Hydroxy-3-methoxyphenyl)-1-(5-bromothiophen-2-yl)pent-1-en-3-one] | 7.23 ± 1.34 mL/min/g liver | 10.1 min
27 | COc1cc(CCC(=O)/C=C/c2sccc2C)ccc1O [STC3, (E)-5-(4-Hydroxy-3-methoxyphenyl)-1-(3-methylthiophen-2-yl)pent-1-en-3-one] | 9.27 ± 2.14 mL/min/g liver | 7.85 min
28 | CCc1ccc(/C=C/C(=O)CCc2ccc(O)c(OC)c2)s1 [STC7, (E)-5-(4-Hydroxy-3-methoxyphenyl)-1-(5-ethylthiophen-2-yl)pent-1-en-3-one] | 7.85 ± 2.51 mL/min/g liver | 9.27 min

Other lines, results leading:

Row | Clint | half-life at 1 μM | Structure (SMILES)
29 | 10.64 ± 1.66 mL/min/g liver | 6.84 min | COc1cc(CCC(=O)/C=C/c2cccs2)ccc1O [STC2, (E)-5-(4-Hydroxy-3-methoxyphenyl)-1-(thiophen-2-yl)pent-1-en-3-one]
30 | 11.24 ± 1.43 mL/min/g liver | 6.47 min | COc1cc(CCC(=O)/C=C/c2ccsc2)ccc1O [STC1, (E)-5-(4-Hydroxy-3-methoxyphenyl)-1(thiophen-3-yl)pent-1-en-3-one]

Target: T2, KEAP1-NRF2 interaction (Homo sapiens, UniProt Q14145)
T2 construct: purchased BPS Bioscience
Test: KEAP1-Nrf2 inhibitor screening, fluorescence polarisation assay
Format: binding
Settings: KEAP1 Kelch domain, read-out: IC50, NRF2-KEAP1 inhibition
Method: The KEAP1-Nrf2 inhibitor screening assay kit (BPS Bioscience, San Diego, California, USA) was used to determine the effect of STCs in inhibiting KEAP1-NRF2 interaction following the manufacturer’s protocol and our reported method. The STC solutions were diluted with the assay buffer, and 5 μL of the STC solutions were incubated at room temperature for 30 min in the peptide mixture containing 0.5 μL NRF2 peptide (1 μM) and 20 μL KEAP1 (15 ng/μL). The fluorescence polarisation (FP) was measured using a microplate reader at λex 485 nm and λem 530 nm. The following equation was used to determine the per cent KEAP1-NRF2 inhibitory effect of the STCs. Keap1−Nrf2 inhbitory activity %=1−Relative FP of STC/Relative FP of postive control×100

T2 sequence (Q14145 2-624 limits assumed): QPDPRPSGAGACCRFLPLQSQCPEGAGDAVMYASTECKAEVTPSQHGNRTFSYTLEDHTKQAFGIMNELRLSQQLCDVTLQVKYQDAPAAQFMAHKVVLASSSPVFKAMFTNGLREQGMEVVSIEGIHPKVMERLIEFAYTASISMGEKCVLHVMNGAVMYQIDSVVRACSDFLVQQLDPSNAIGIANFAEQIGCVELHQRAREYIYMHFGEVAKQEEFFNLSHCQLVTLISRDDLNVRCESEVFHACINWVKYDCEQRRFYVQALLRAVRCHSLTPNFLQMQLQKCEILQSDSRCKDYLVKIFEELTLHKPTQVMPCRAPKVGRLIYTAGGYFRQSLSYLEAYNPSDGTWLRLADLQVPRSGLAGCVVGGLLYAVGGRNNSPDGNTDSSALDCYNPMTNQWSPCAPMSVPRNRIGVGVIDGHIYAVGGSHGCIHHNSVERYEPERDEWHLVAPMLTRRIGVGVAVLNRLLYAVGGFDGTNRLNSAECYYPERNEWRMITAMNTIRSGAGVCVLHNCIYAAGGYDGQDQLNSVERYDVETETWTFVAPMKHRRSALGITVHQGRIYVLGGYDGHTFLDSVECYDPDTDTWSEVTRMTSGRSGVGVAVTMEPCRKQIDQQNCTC

Row | Structure (SMILES) | IC50
31 | COc1cc(CCC(=O)/C=C/c2cc(Br)cs2)ccc1O [STC4, (E)-5-(4-Hydroxy-3-methoxyphenyl)-1-(4-bromothiophen-2-yl)pent-1-en-3-one] | 280 nM
32 | COc1cc(CCC(=O)/C=C/c2ccc(Br)s2)ccc1O [STC6, (E)-5-(4-Hydroxy-3-methoxyphenyl)-1-(5-bromothiophen-2-yl)pent-1-en-3-one] | 290 nM
33 | COc1cc(CCC(=O)/C=C/c2sccc2C)ccc1O [STC3, (E)-5-(4-Hydroxy-3-methoxyphenyl)-1-(3-methylthiophen-2-yl)pent-1-en-3-one] | 540 nM
34 | CCc1ccc(/C=C/C(=O)CCc2ccc(O)c(OC)c2)s1 [STC7, (E)-5-(4-Hydroxy-3-methoxyphenyl)-1-(5-ethylthiophen-2-yl)pent-1-en-3-one] | 350 nM

The remaining lines, values ahead:

Row | IC50 | Structure (SMILES)
35 | 630 nM | COc1cc(CCC(=O)/C=C/c2cccs2)ccc1O [STC2, (E)-5-(4-Hydroxy-3-methoxyphenyl)-1-(thiophen-2-yl)pent-1-en-3-one]
36 | 860 ± 110 nM | COc1cc(CCC(=O)/C=C/c2ccsc2)ccc1O [STC1, (E)-5-(4-Hydroxy-3-methoxyphenyl)-1(thiophen-3-yl)pent-1-en-3-one]
